The source of these data is patent US20090291977A1, “Chromane Derivatives Useful As Acid Pump Antagonists” (priority 2004, published 2009).

The target in this test is T1, Porcine gastric H+/K+-ATPase (Sus scrofa, UniProt P19156).
T1 construct: The gastric vesicles were collected from interface on 0.25 M sucrose layer containing 7% Ficoll; from tissue; host or cells: mucous membrane of fresh porcine stomachs (gastric vesicles)
T1 sequence (P19156 2-1034 limits assumed): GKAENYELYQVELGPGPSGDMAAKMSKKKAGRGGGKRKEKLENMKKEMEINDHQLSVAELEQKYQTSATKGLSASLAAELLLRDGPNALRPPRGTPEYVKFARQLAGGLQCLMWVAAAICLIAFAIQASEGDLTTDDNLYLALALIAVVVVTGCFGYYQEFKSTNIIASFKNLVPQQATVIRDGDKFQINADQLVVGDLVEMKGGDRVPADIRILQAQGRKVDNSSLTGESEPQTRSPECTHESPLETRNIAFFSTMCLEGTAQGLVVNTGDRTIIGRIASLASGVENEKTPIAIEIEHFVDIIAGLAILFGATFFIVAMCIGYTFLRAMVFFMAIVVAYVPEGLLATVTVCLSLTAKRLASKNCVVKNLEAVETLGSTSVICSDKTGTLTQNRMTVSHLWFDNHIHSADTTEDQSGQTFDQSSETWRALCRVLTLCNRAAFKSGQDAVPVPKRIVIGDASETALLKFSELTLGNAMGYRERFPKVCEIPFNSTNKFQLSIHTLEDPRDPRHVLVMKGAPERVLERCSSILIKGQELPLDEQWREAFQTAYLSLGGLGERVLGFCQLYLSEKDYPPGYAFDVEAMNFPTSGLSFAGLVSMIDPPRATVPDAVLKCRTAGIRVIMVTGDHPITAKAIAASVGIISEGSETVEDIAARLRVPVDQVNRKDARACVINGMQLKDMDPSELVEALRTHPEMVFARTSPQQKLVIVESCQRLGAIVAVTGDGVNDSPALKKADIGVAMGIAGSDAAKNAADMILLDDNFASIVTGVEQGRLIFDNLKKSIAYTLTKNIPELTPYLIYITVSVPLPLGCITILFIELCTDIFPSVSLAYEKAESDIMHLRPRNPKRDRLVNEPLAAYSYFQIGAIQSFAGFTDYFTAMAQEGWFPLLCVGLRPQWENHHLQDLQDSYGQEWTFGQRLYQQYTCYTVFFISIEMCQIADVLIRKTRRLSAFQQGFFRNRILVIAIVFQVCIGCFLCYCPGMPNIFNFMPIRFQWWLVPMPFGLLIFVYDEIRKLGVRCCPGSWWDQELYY
T1 sequence (P18434 whole entry partner): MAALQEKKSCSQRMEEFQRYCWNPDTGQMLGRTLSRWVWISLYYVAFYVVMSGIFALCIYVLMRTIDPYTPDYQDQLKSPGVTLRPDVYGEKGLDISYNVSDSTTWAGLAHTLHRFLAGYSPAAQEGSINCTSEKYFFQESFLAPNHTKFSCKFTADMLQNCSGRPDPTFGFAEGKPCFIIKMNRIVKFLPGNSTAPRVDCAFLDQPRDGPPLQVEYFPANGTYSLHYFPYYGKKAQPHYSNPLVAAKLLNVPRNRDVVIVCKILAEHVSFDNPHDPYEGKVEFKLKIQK
As to the kind of experiment: Ion-leaky porcine gastric H+/K+-ATPase inhibition. Format: biochemical. To be noted: ion-leaky vesicles, 5 mM KCl, pH 6.4, 37° C., 30 minutes. How it is done:
The porcine gastric vesicles for Porcine gastric H^+/K^+-ATPase inhibition assays were prepared from mucous membrane in fresh porcine stomachs by homogenization with a tight-fitted polytetrafluoroethylene (Teflone®) homogenizer in 0.25 M sucrose at 4° C. The crude pellet was removed with centrifugation at 20,000 g for 30 min. Then supernatant was centrifuged at 100,000 g for 30 min. The resulting pellet was re-suspended in 0.25 M sucrose, and then subjected to density gradient centrifugation at 132,000 g for 90 min. The gastric vesicles were collected from interface on 0.25 M sucrose layer containing 7% Ficoll™ PM400(Amersham Biosciences). This procedure was performed in a cold room.
Ion-leaky porcine gastric H^+/K^+-ATPase-inhibition was measured according to the modified method described in Biochemical Pharmacology, 1988, 37, 2231-2236.
The isolated vesicles were lyophilized, and then kept in deep-freezer until use. For enzyme assay, lyophilized vesicles were reconstituted with 3 mM MgSO4 containing 40 mM Bis-tris (pH 6.4 at 37° C.).
Enzyme reaction was performed incubating 5 mM KCl, 3 mM Na2ATP, 3 mM MgSO4 and 1.0 μg of reconstituted vesicles for 30 minutes at 37° C. in a final 60 μl of reaction mixture (40 mM Bis-tris, pH 6.4) with or without the test compound. Enzyme reaction was stopped by adding 10% sodium dodecyl sulphate (SDS). Released inorganic phosphate from ATP was detected by incubation with mixture of 1 part of 35 mM ammonium molybdate tetrahydrate in 15 mM Zinc acetate hydrate and 4 parts of 10% ascorbic acid (pH 5.0), resulting in phosphomolybdate, which has optical density at 750 nm.
In general, IC50 refers to the point on the concentration scale where inhibition reaches its midpoint. Low readings indicate inhibition by little substance, high ones a need for much substance. “8-3,4-Dihydro-1H-isochromen-4-ylamino)-N,N,2,3-tetramethylimidazo[1,2-a]pyridine-6-carboxamide [Example 3-1]” gave an IC50 of 103 nM.

Turning to `Cc1nc2c(NC3CCOc4ccccc43)cc(C(=O)N(C)C)cn2c1C` (racemic) [Example 1-1, 8-(3,4-Dihydro-2H-chromen-4-ylamino)-N,N,2,3-tetramethylimidazo[1,2-a]pyridine-6-carboxamide], the IC50 was 85 nM.

Regarding `Cc1nc2c(NC3CCOc4ccccc43)cc(C(=O)N(C)CCO)cn2c1C` (racemic) [Example 2-1, 8-(3,4-Dihydro-2H-chromen-4-ylamino)-N-(2-hydroxyethyl)-N,2,3-trimethylimidazo[1,2-a]pyridine-6-carboxamide], the half-maximal inhibitory concentration (IC50) is 49.7 nM.

For `Cc1nc2c(NC3COCc4ccccc43)cc(C(=O)N(C)CCO)cn2c1C` (racemic) [Example 4-1, 8-(3,4-Dihydro-1H-isochromen-4-ylamino)-N-(2-hydroxyethyl)-N,2,3-trimethylimidazo[1,2-a]pyridine-6-carboxamide], the IC50 was determined as 87.1 nM.

Take `Cc1cccc2c1C(Nc1cc(C(=O)N(C)CCO)cn3c(C)c(C)nc13)CCO2` (racemic) [Example 5-1, N-(2-Hydroxyethyl)-N,2,3-trimethyl-8-[(5-methyl-3,4-dihydro-2H-chromen-4-yl)amino]imidazo[1,2-a]pyridine-6-carboxamide]: inhibition was half-maximal at 94.7 nM (IC50).

As for `Cc1nc2c(NC3CCOc4cc(F)ccc43)cc(C(=O)N(C)C)cn2c1C` (racemic) [Example 6-1, 8-[(7-Fluoro-3,4,dihydro-2H-chromen-4-yl)amino]-N,N,2,3-tetramethylimidazo[1,2-a]pyridine-6-carboxamide], the half-maximal inhibitory concentration (IC50) was 13.9 nM.

The molecule `Cc1nc2c(NC3CCOc4cc(F)ccc43)cc(C(=O)N(C)CCO)cn2c1C` (racemic) [Example 7-1, 8-[(7-Fluoro-3,4-dihydro-2H-chromen-4-yl)amino]-N-(2-hydroxyethyl)-N,2,3-trimethylimidazol[1,2-a]pyridlne-6-carboxamide] had an IC50 of 26.6 nM.

For `Cc1nc2c(NC3CCOc4cc(F)cc(F)c43)cc(C(=O)N(C)C)cn2c1C` (racemic) [Example 8-1, 8-[(5,7-Difluoro-3,4-dihydro-2H-chromen-4-yl)amino]-N,N,2,3-tetramethylimidazo[1,2-a]pyridine-6-carboxamide], half-maximal inhibition (IC50) was put at 20 nM.

On to `Cc1nc2c(NC3CCOc4cc(F)cc(F)c43)cc(C(=O)N(C)CCO)cn2c1C` (racemic) [Example 9-1, 8-[(5,7-Difluoro-3,4-dihydro-2H-chromen-4-yl)amino]-N-(2-hydroxyethyl)-N,2,3-trimethylimidazo[1,2-a]pyridine-6-carboxamide], for which the IC50 worked out at 50 nM.

The molecule `Cc1nc2c(NC3CCOc4cccc(F)c43)cc(C(=O)N(C)C)cn2c1C` (racemic) [Example 10-1, 8-[(5-Fluoro-3,4-dihydro-2H-chromen-4-yl)amino]-N,N,2,3-tetramethylimidazo[1,2-a]pyridine-6-carboxamide] showed a concentration for half-maximal inhibition (IC50) of 75.1 nM.

Regarding `Cc1nc2c(NC3CCOc4cccc(F)c43)cc(C(=O)N(C)CCO)cn2c1C` (racemic) [Example 11-1, 8-[(5-Fluoro-3,4-dihydro-2H-chromen-4-yl)amino]-N-(2-hydroxyethyl)-N,2,3-trimethylimidazo[1,2-a]pyridine-6-carboxamide], the half-maximal inhibitory concentration (IC50) is 48.6 nM.

On to `Cc1nc2c(NC3CCOc4ccc(F)cc43)cc(C(=O)N(C)C)cn2c1C` (racemic) [Example 12-1, 8-[(6-Fluoro-3,4-dihydro-2H-chromen-4-yl)amino]-N,N,2,3-tetramethylimidazo[1,2-a]pyridine-6-carboxamide], for which half-maximal inhibition (IC50) required 20.8 nM.

In turn, `Cc1nc2c(NC3CCOc4ccc(F)cc43)cc(C(=O)N(C)CCO)cn2c1C` (racemic) [Example 13-1, 8-[(6-Fluoro-3,4-dihydro-2H-chromen-4-yl)amino]-N-(2-hydroxyethyl)-N,2,3-trimethylimidazol[1,2-a]pyridine-6-carboxamide] came in with an IC50 of 250 nM.

With `Cc1nc2c(NC3CCOc4c(F)cccc43)cc(C(=O)N(C)C)cn2c1C` (racemic) [Example 14-1, 8-[(8-Fluoro-3,4-dihydro-2H-chromen-4-yl)amino]-N,N,2,3-tetramethylimidazo[1,2-a]pyridine-6-carboxamide], the midpoint of inhibition, the IC50, lay at 294 nM.

For the molecule `Cc1nc2c(NC3CCOc4c(F)cccc43)cc(C(=O)N(C)CCO)cn2c1C` (racemic) [Example 15-1, 8-[(8-Fluoro-3,4-dihydro-2H-chromen-4-yl)amino]-N-(2-hydroxyethyl)-N,2,3-trimethylimidazol[1,2-a]pyridine-6-carboxamide], the IC50 turned out to be 40.9 nM.

Molecule `Cc1ccc2c(c1)OCCC2Nc1cc(C(=O)N(C)CCO)cn2c(C)c(C)nc12` (racemic) [Example 16-1, N-(2-Hydroxyethyl)-N,2,3-trimethyl-8-[(7-methyl-3,4-dihydro-2H-chromen-4-yl)amino]imidazo[1,2-a]pyridine-6-carboxamide] showed a concentration for half-maximal inhibition (IC50) of 331 nM.

For the molecule `Cc1cccc2c1C(Nc1cc(C(=O)N(C)C)cn3c(C)c(C)nc13)CCO2` (racemic) [Example 17-1, N,N,2,3-Tetramethyl-8-[(5-methyl-3,4-dihydro-2H-chromen-4-yl)amino]imidazo[1,2-a]pyridine-6-carboxamide], half-maximal inhibition (IC50) required 64 nM.

`Cc1nc2c(NC3CCOc4cccc(Cl)c43)cc(C(=O)N(C)C)cn2c1C` (racemic) [Example 18-1, 8-[(5-Chloro-3,4-dihydro-2H-chromen-4-yl)amino]-N,N,2,3-tetramethylimidazo[1,2-a]pyridine-6-carboxamide]: the IC50 worked out at 350 nM.

As for `Cc1nc2c(NC3CCOc4cccc(Cl)c43)cc(C(=O)N(C)CCO)cn2c1C` (racemic) [Example 19-1, 8-[(5-Chloro-3,4-dihydro-2H-chromen-4-yl)amino]-N-(2-hydroxyethyl)-N,2,3-trimethylimidazo[1,2-a]pyridine-6-carboxamide], it took 390 nM to reach half-maximal inhibition (IC50).

Regarding `Cc1nc2c(NC3CCOc4cc(F)ccc43)cc(C(=O)N(C)C)cn2c1C` (single isomer, unassigned) [Example 6-2, 8-[(7-Fluoro-3,4,dihydro-2H-chromen-4-yl)amino]-N,N,2,3-tetramethylimidazo[1,2-a]pyridine-6-carboxamide], the IC50 is 40.9 nM.

`Cc1nc2c(NC3CCOc4cc(F)ccc43)cc(C(=O)N(C)C)cn2c1C` (single isomer, unassigned) [Example 6-3, 8-[(7-Fluoro-3,4,dihydro-2H-chromen-4-yl)amino]-N,N,2,3-tetramethylimidazo[1,2-a]pyridine-6-carboxamide]: the IC50 was 15.7 nM.

As to `Cc1nc2c(NC3CCOc4cc(F)ccc43)cc(C(=O)N(C)CCO)cn2c1C` (single isomer, unassigned) [Example 7-2, 8-[(7-Fluoro-3,4-dihydro-2H-chromen-4-yl)amino]-N-(2-hydroxyethyl)-N,2,3-trimethylimidazol[1,2-a]pyridlne-6-carboxamide], inhibition was half-maximal at 20.5 nM (IC50).

As for `Cc1nc2c(NC3CCOc4cc(F)ccc43)cc(C(=O)N(C)CCO)cn2c1C` (single isomer, unassigned) [Example 7-3, 8-[(7-Fluoro-3,4-dihydro-2H-chromen-4-yl)amino]-N-(2-hydroxyethyl)-N,2,3-trimethylimidazol[1,2-a]pyridlne-6-carboxamide], the midpoint of inhibition, the IC50, lay at 55.9 nM.

For the molecule `Cc1nc2c(NC3CCOc4cc(F)cc(F)c43)cc(C(=O)N(C)C)cn2c1C` (single isomer, unassigned) [Example 8-2, 8-[(5,7-Difluoro-3,4-dihydro-2H-chromen-4-yl)amino]-N,N,2,3-tetramethylimidazo[1,2-a]pyridine-6-carboxamide], the IC50 came out at 23 nM.

Take `Cc1nc2c(NC3CCOc4cc(F)cc(F)c43)cc(C(=O)N(C)C)cn2c1C` (single isomer, unassigned) [Example 8-3, 8-[(5,7-Difluoro-3,4-dihydro-2H-chromen-4-yl)amino]-N,N,2,3-tetramethylimidazo[1,2-a]pyridine-6-carboxamide]: inhibition was half-maximal at 49 nM (IC50).

On to `Cc1nc2c(NC3CCOc4cc(F)cc(F)c43)cc(C(=O)N(C)CCO)cn2c1C` (single isomer, unassigned) [Example 9-2, 8-[(5,7-Difluoro-3,4-dihydro-2H-chromen-4-yl)amino]-N-(2-hydroxyethyl)-N,2,3-trimethylimidazo[1,2-a]pyridine-6-carboxamide], for which the concentration for half-maximal inhibition (IC50) was 15.9 nM.

As for `Cc1nc2c(NC3CCOc4cc(F)cc(F)c43)cc(C(=O)N(C)CCO)cn2c1C` (single isomer, unassigned) [Example 9-3, 8-[(5,7-Difluoro-3,4-dihydro-2H-chromen-4-yl)amino]-N-(2-hydroxyethyl)-N,2,3-trimethylimidazo[1,2-a]pyridine-6-carboxamide], the IC50 stood at 53.2 nM.

The molecule `Cc1nc2c(NC3CCOc4cccc(F)c43)cc(C(=O)N(C)C)cn2c1C` (single isomer, unassigned) [Example 10-2, 8-[(5-Fluoro-3,4-dihydro-2H-chromen-4-yl)amino]-N,N,2,3-tetramethylimidazo[1,2-a]pyridine-6-carboxamide] had an IC50 of 51.1 nM.
